The values below come from paper PMC6198068, “Discovery of a Novel Nav1.7 Inhibitor From Cyriopagopus albostriatus Venom With Potent Analgesic Efficacy” (Frontiers in Pharmacology, 2018).

The test system of one assay is Nav1.4. Details: method as in Xiao et al., 2008; Goncalves et al., 2018. The settings on record: skeletal isoform; ref Xiao et al., 2008; Goncalves et al., 2018; cited from earlier work.
A further assay deals with hot plate test in mice. The experiment in a line: Hot plate test. The settings on record: mouse, in vivo. It is filed as in vivo, ICR mice. The procedure: (§1) The ICR mice (18–22 g) used in this study were purchased from the Experimental Animal Center of SLac-kinda (Changsha, China). The animals were maintained at 20–25°C and freely allowed to standard rodent chow and water ad libitum. Ethical approval for in vivo experiments in animals was approved by the Animal Care and Use Committee (ACUC) at the Hunan Province Animal Management Office (HPAMO).
According to a previous method ([Meng et al., 2017]), a hot plate apparatus (model YLS-21A, Jinan, China) maintained at 55 ± 1°C, was used to measure the pain threshold of mice subjected to a thermal stimulus. Each female mouse was placed on hot plate to observe its pain response (hind-paw-licking or jumping) acted as its own control. The mice whose latent response times were shorter than 5 s or longer than 30 s were excluded from the test.
Background: In hot-plate and tail-flick tests a longer latency is read as antinociception.

For assay [1], the system named is formalin-induced paw licking in mice. Briefly: Formalin-induced paw licking. The format is in vivo, ICR mice. The settings on record: mouse, in vivo, ip. Here is the method:
as §1
A formalin test was performed according to the previous method ([Owoyele et al., 2005]). […] The time spent licking the injected paw by each mouse was recorded by a digital stopwatch during Phase I (0–15 min post-injection) and Phase II (15–40 min post-injection).

As for “HWTX-IV: spider peptide toxin; printed as μ-TRTX-Hhn1b (HWTX-IV) in b50, μ-TRTX-Hs2a (HWTX-IV) in b51”, in the assay with Nav1.4, the IC50 is 400 nM.
Take `CN1CC[C@]23c4c5ccc(O)c4O[C@H]2[C@@H](O)C=C[C@H]3[C@H]1C5` [morphine, reference compound]: the “latency time, hot plate” value in the assay with hot plate test in mice came to 15.2 ± 1.9 s. For the same compound, in assay [1], the “analgesic effect on Phase I compared to control” value was “modest analgesia”; the “paw licking time, Phase I” value was 64.1 ± 8.5 s; the “paw licking time, Phase II” value came out at 126.1 ± 19.8 s.

One may read the IC50 as the concentration needed to halve the response being measured.
